The nature of data set [1]: Metabolic stability in human liver microsomes assessed as half life measured up to 60 mins by LC/MS analysis. It counts as ADME, Microsome. On the technique in general: Liver microsomes are a subcellular fraction often used to study metabolism.
Data set [2] has as its system Plasmodium falciparum. Put plainly: microbe, parasite or virus in culture. As to conditions: Dd2, 72 h.
Description: Antiplasmodial activity against asexual blood-stage Plasmodium falciparum Dd2 using 2% haematocrit and 0.2% parasitemia assessed as reduction in fluorescence measured after 72 hrs by Malaria SYBR Green I-based Fluorescence (MSF) assay
For data set [3], the system named is Plasmodium falciparum. Put plainly: Antiplasmodial activity against asexual blood-stage Plasmodium falciparum Tm90-C2B using 2% haematocrit and 0.2% parasitemia assessed as reduction in fluorescence measured after 72 hrs by Malaria SYBR Green I-based Fluorescence (MSF) assay. It counts as functional, organism-based.
Data set [4] is described as follows: in vitro. To be noted: human, liver microsomes.
The subject of data set [5] is HepG2. Put plainly: Cytotoxicity against human HepG2 cells assessed as cell viability measured after 48 hrs by MTT assay. It is filed as toxicity, cell-based. To be noted: hepg2. On the technique in general: Formazan colour is commonly taken as a measure of viable cells.
The test system of data set [6] is MDR1 (human). Kind of data set: Apparent permeability across basolateral to apical side in MDCK transfected with human MDR1 cells incubated for 1 hr by LC-MS analysis. To be noted: dog, MDCK-MDR1.
Data set [7] concerns Plasmodium yoelii. Put plainly: Antimalarial activity against erythrocytic Plasmodium yoelii MRA-428 infected in CF1 mouse assessed as reduction in parasitemia at 10 mg/kg, po once daily for 4 days measured on day 5. Also on record: scale not given: the % may be the effect or the level left. To be noted: time 4 day. It counts as functional.
A short description of data set [8]: Solubility of the compound in potassium phosphate buffer at pH 7.4 by UV-vis spectroscopy. To be noted: buffer.
The nature of data set [9]: in vitro. As to conditions: mouse, liver microsomes.
Data set [10] can be described thus: Metabolic stability in mouse liver microsomes assessed as half life measured up to 60 mins by LC/MS analysis. It is filed as ADME, Microsome.
The test system of data set [11] is Plasmodium falciparum. Put plainly: microbe, parasite or virus in culture. As to conditions: D6, 72 h.
Description: Antiplasmodial activity against asexual blood-stage Plasmodium falciparum D6 using 2% haematocrit and 0.2% parasitemia assessed as reduction in fluorescence measured after 72 hrs by Malaria SYBR Green I-based Fluorescence (MSF) assay
For data set [12], the system named is MDR1 (human). Put plainly: Apparent permeability across apical to basolateral side in MDCK transfected with human MDR1 cells incubated for 1 hr by LC-MS analysis. To be noted: dog, MDCK-MDR1.

Values after ≈ are worked out from the molar mass of the structure shown.

For the compound `CCC1=C(CC)/C(=C/NC2CCCCCC2)N=C1c1ccc(-c2ccccc2)[nH]1`, the values for the half-life in data set [1] and in data set [10] were 0.375 h and 0.202 h, respectively. Also, the IC50 was determined as 0.0302 µM in [2], 0.0198 µM in data set [3] and 5.64 µM in data set [5]. Also, the figures for the intrinsic metabolic clearance (microsomal CLint) at 1 h in data set [4] and in data set [9] were 61.5 µL/min/mg and 115 µL/min/mg, respectively. Besides, the Papp B→A at 1 h in data set [6] worked out at 0.002 ×10⁻⁶ cm/s. Moreover, the Activity in data set [7] was 10.5%. The same compound showed a solubility in data set [8] of 13.1 µM (≈ 5.08 µg/mL).
For the compound `CCC1=C(CC)/C(=C/NC2CCCCCC2)N=C1c1ccc(C#N)[nH]1`, the IC50 in data set [11], in [2] and in [3] was more than 2.5 µM throughout.
Regarding `CCC1=C(CC)/C(=C/NC23C[C@H]4C[C@@H](C2)C[C@@H](C3)C4)N=C1c1ccccc1OCCN(CC)CC`, the IC50 in [11] is 2.07 µM; in data set [2], 0.774 µM; in data set [3], 1.4 µM.
Take `CCC1=C(CC)/C(=C/NC2CCCCC2)N=C1c1ccccc1O`: the IC50 in data set [11], in [2] and in data set [3] was more than 2.5 µM each time.
Consider `CCc1c(C(=O)NC2CCCCC2)[nH]c(-c2ccc(C)[nH]2)c1CC`, for which the half-maximal inhibitory concentration (IC50) in data set [11], in data set [2] and in data set [3] was more than 2.5 µM in each case.
As for `CCc1ccc(-c2[nH]c(C(=O)NC34C[C@H]5C[C@@H](C3)C[C@@H](C4)C5)c(CC)c2CC)[nH]1`, the IC50 in [11], in data set [2] and in data set [3] was more than 2.5 µM throughout.
For the compound `CCC1=C(CC)/C(=C/NC23C[C@H]4C[C@@H](C2)C[C@@H](C3)C4)N=C1c1ccn[nH]1`, the IC50 in [11], in data set [2] and in data set [3] was more than 2.5 µM in each case.
As to `CCC1=C(CC)/C(=C/NC2CCCCCCC2)N=C1c1ccc(-c2ccc(OC)cc2)[nH]1`, the half-life in data set [1] and in data set [10] was more than 1 h in each case. Also, the IC50 in data set [11] was 0.0145 µM; in data set [2], 0.0225 µM; in data set [3], 0.0254 µM; in [5], 4.96 µM. Moreover, in data set [12], the apical-to-basolateral permeability (Papp A→B) at 1 h was 0.054 ×10⁻⁶ cm/s. For the same compound, the Papp B→A at 1 h in data set [6] was found to be 0.012 ×10⁻⁶ cm/s. The Activity in [7] stood at 0%. This compound showed a solubility in data set [8] of less than 3.125 µM.
`CCC1=C(CC)/C(=C/NC2CCCCCCC2)N=C1c1ccc(C#N)[nH]1`: the IC50 in [11], in data set [2] and in [3] was more than 2.5 µM throughout.
`CCc1c(CNC23CC4CC(CC(C4)C2)C3)[nH]c(-c2ccc[nH]2)c1CC`: the 50% inhibitory concentration (IC50) in [2] is 0.753 µM; in data set [3], 0.912 µM.
Regarding `CCC1=C(CC)/C(=C/NC2CCCCCCC2)N=C1c1ccc(Cl)[nH]1`, the half-life in [1] and in data set [10] was more than 1 h throughout. For the same compound, the 50% inhibitory concentration (IC50) in [11] stood at 0.186 µM; in data set [2], 0.0991 µM; in [3], 0.101 µM; in data set [5], 12.3 µM. Also, the microsomal CLint at 1 h in data set [4] came out at 10.1 µL/min/mg; in data set [9] it was 12.4 µL/min/mg. Besides, the apparent permeability from apical to basolateral (Papp A→B) at 1 h in [12] came to 0.28 ×10⁻⁶ cm/s. Also, the Papp B→A at 1 h in data set [6] worked out at 0.04 ×10⁻⁶ cm/s. In data set [8], this compound had a solubility of 5.37 µM (≈ 1.93 µg/mL).
`CCC1=C(CC)/C(=C/NC23C[C@H]4C[C@@H](C2)C[C@@H](C3)C4)N=C1c1ccccc1F`: the IC50 in data set [11], in data set [2] and in data set [3] was more than 2.5 µM each time.
As to `COc1ccc(OC2=C(Oc3ccc(OC)cc3)/C(=C/NC3CCCCCC3)N=C2c2ccc[nH]2)cc1`, the IC50 in data set [11] worked out at 1.49 µM; in data set [2], 1.74 µM; in data set [3], 2.17 µM.
As for `CCC1=C(CC)/C(=C/NC2CCCCC2)N=C1c1ccn[nH]1`, the concentration for half-maximal inhibition (IC50) in [11], in data set [2] and in data set [3] was more than 2.5 µM each time.
For `C(/NC12C[C@H]3C[C@@H](C1)C[C@@H](C2)C3)=C1/N=C(c2ccc[nH]2)C(c2ccccc2)=C1c1ccccc1`, the values for the IC50 in [11], in data set [2] and in data set [3] were 0.412 µM, 0.359 µM and 0.351 µM, respectively.
The like results for `C(/NC1CCCCC1)=C1/N=C(c2ccc[nH]2)C(c2ccccc2)=C1c1ccccc1` were, in that order, 1.52 µM, 1.28 µM and 1.7 µM.
In the case of `COc1ccc(C2=C(c3ccc(OC)cc3)/C(=C/NC3CCCCCC3)N=C2c2ccc[nH]2)cc1`, the concentration for half-maximal inhibition (IC50) was 0.33 µM in data set [2] and 0.131 µM in data set [3].
In the case of `CCC1=C(CC)/C(=C/NC2CCCCC2)N=C1c1ccccc1OC`, the 50% inhibitory concentration (IC50) in [11], in [2] and in data set [3] was more than 2.5 µM in each case.
For the compound `CCC1=C(CC)/C(=C/NC2CCCCCCC2)N=C1c1ccc(Cc2ccc(OC)cc2)[nH]1`, the half-life in [1] and in data set [10] was more than 1 h in each case. For the same compound, the IC50 in [2] is 0.0108 µM; in [3], 0.013 µM; in [5], 4.31 µM. Further, in data set [12], the apparent permeability from apical to basolateral (Papp A→B) at 1 h came to 0.074 ×10⁻⁶ cm/s. For the same compound, the Papp B→A at 1 h in data set [6] amounted to 0.12 ×10⁻⁶ cm/s. Besides, in [7], the Activity came out at 0%. Also, the solubility in data set [8] was less than 3.125 µM.
With `CCC1=C(CC)/C(=C/NC2CCCCC2)N=C1c1ccccc1OCCN(C)C`, the IC50 in data set [11] was more than 2.5 µM; in data set [2], 1.38 µM; in data set [3], more than 2.5 µM.
With `COc1ccc(C2=C(c3ccc(OC)cc3)/C(=C/NC3CCCCC3)N=C2c2ccc[nH]2)cc1`, the IC50 in [2] worked out at 0.343 µM; in data set [3], 0.187 µM.
In the case of `CCC1=C(CC)/C(=C/NC2CCCCC2)N=C1c1ccccc1F`, the IC50 in [11], in data set [2] and in [3] was more than 2.5 µM in each case.
Consider `CCC1=C(CC)/C(=C/NC2CCCCCCC2)N=C1c1ccn[nH]1`, for which the IC50 in data set [11], in data set [2] and in data set [3] was more than 2.5 µM throughout.
On to `CCc1c(C(=O)NC23C[C@H]4C[C@@H](C2)C[C@@H](C3)C4)[nH]c(-c2ccc[nH]2)c1CC`, for which the half-maximal inhibitory concentration (IC50) in data set [11], in data set [2] and in [3] was more than 2.5 µM in each case.
For the compound `CCc1c(C(=O)NC2CCCCC2)[nH]c(-c2ccc[nH]2)c1CC`, the IC50 in data set [11], in data set [2] and in data set [3] was more than 2.5 µM in each case.
Take `CCc1ccc(-c2[nH]c(C(=O)NC3CCCCC3)c(CC)c2CC)[nH]1`: the concentration for half-maximal inhibition (IC50) in data set [11], in [2] and in data set [3] was more than 2.5 µM in each case.
`C(/NC1CCCCCC1)=C1/N=C(c2ccc[nH]2)C(c2ccccc2)=C1c1ccccc1`: the 50% inhibitory concentration (IC50) in [2] came out at 1 µM; in data set [3] it was 2.11 µM.
For `CCC1=C(CC)/C(=C/NC2CCCCC2)N=C1c1cc2ccccc2[nH]1`, the 50% inhibitory concentration (IC50) in [11], in data set [2] and in [3] was more than 2.5 µM in each case.
On to `C(/NC1CCCCCC1)=C1/N=C(c2ccc[nH]2)C(Oc2ccccc2)=C1Oc1ccccc1`, for which the IC50 in data set [11], in data set [2] and in [3] was more than 2.5 µM in each case.
For the compound `COc1ccc(OC2=C(Oc3ccc(OC)cc3)/C(=C/NC34C[C@H]5C[C@@H](C3)C[C@@H](C4)C5)N=C2c2ccc[nH]2)cc1`, the IC50 is 0.228 µM in [11], 0.113 µM in data set [2] and 0.184 µM in data set [3].
The like results for `C(/NC12C[C@H]3C[C@@H](C1)C[C@@H](C2)C3)=C1/N=C(c2ccc[nH]2)C(Oc2ccccc2)=C1Oc1ccccc1` were, in that order, 0.617 µM, 0.787 µM and 0.456 µM.
In the case of `CCC1=C(CC)/C(=C/NC23C[C@H]4C[C@@H](C2)C[C@@H](C3)C4)N=C1c1ccccc1OCCN(C)C`, the IC50 in data set [11] is more than 2.5 µM; in data set [2], 2.44 µM; in data set [3], 1.73 µM.
The like results for `CCC1=C(CC)/C(=C/NC2CCCCC2)N=C1c1ccccc1OCCN(CC)CC` were, in that order, more than 2.5 µM, 0.757 µM and 1.06 µM.
The like results for `C(/NC1CCCCC1)=C1/N=C(c2ccc[nH]2)C(Oc2ccccc2)=C1Oc1ccccc1` were, in that order, more than 2.5 µM, more than 2.5 µM and more than 2.5 µM.
Turning to `CCC1=C(CC)/C(=C/NC2CCCCC2)N=C1c1cc2cc(OC)ccc2[nH]1`, the IC50 was 1.08 µM in data set [11], more than 2.5 µM in data set [2] and 2.29 µM in data set [3].
In the same order, the values of `CCC1=C(CC)/C(=C/NC23C[C@H]4C[C@@H](C2)C[C@@H](C3)C4)N=C1c1ccc(C#N)[nH]1` are 0.397 µM, more than 2.5 µM and 0.818 µM.
The like results for `CCC1=C(CC)/C(=C/NC2CCCCC2)N=C1c1ccc(C#N)[nH]1` were, in that order, 1.6 µM, more than 2.5 µM and more than 2.5 µM.
In the same order, the values of `CCC1=C(CC)/C(=C/NC2CCCCCC2)N=C1c1ccn[nH]1` are more than 2.5 µM, more than 2.5 µM and more than 2.5 µM.
As to `CCC1=C(CC)/C(=C/NC23C[C@H]4C[C@@H](C2)C[C@@H](C3)C4)N=C1c1ccccc1OC`, the IC50 in data set [11], in [2] and in [3] was more than 2.5 µM each time.
Consider `COc1ccc(OC2=C(Oc3ccc(OC)cc3)/C(=C/NC3CCCCC3)N=C2c2ccc[nH]2)cc1`, for which the IC50 in data set [11] came to 1.22 µM; in [2] it was 1.47 µM; in data set [3] it was 1.65 µM.

One may read the half-life as the time in which the quantity being followed falls by half. By IC50 is commonly meant the concentration at which inhibition is half-maximal. By microsomal CLint is commonly meant the capacity of the preparation to metabolise the compound, expressed as a volume cleared per time. The term Papp B→A denotes the apparent permeability from the basolateral to the apical side of a cell layer. The solubility is the dissolved amount per volume that the medium holds. The Papp A→B is the apparent permeability from the apical to the basolateral side of a cell layer.

(Values after ChEMBL document CHEMBL6178021, “Optimization of Tambjamines Active against Multiple Stages of Malaria Parasites” (J Med Chem, 2025).)
